Reference: ChEMBL document CHEMBL4619778, “Oligopeptides as Neuropeptide Y Y4 Receptor Ligands: Identification of a High-Affinity Tetrapeptide Agonist and a Hexapeptide Antagonist” (J Med Chem, 2020)
Bridge positions count the residues as written; N and C are the ends. Square brackets hold non-standard residues; d marks the D form. Peptide text beside a SMILES is read from it. I, II: the chains in the order shown. ξ: configuration not given here. ξDap = NCC(N)C(=O)O

Columns and labels:
[1] = biological target: T1, Neuropeptide Y receptor type 4 (Homo sapiens, UniProt P50391); test: Agonist activity at human Y4R expressed in HEK293T cells co-expressing ARRB2 assessed as induction of beta-arrestin2 recruitment measured for 40 mins by D-luciferin based luminescence assay; format: cell-based, HEK-293T
[2] = biological target: T1, Neuropeptide Y receptor type 4; test: Agonist activity at human Y4R expressed in HEK293T cells co-expressing ARRB1 assessed as induction of beta-arrestin1 recruitment measured for 40 mins by D-luciferin based luminescence assay; format: cell-based, HEK-293T
[3] = biological target: T1, Neuropeptide Y receptor type 4; test: Displacement of [3H]UR-KK200 from human Y4 receptor expressed in CHO cells co-expressing Gqi5-mtAEQ measured after 90 mins by scintillation counting analysis; format: cell-based
[4] = biological target: T1, Neuropeptide Y receptor type 4; test: Agonist activity at human Y4 receptor expressed in CHO cells co-expressing Gqi5-mtAEQ assessed as intracellular calcium mobilization measured for 43 secs in presence of coelenterazine by aequorin-reporter gene based luminescence assay; format: functional, cell-based
[5] = biological target: T2, Neuropeptide Y receptor type 1 (Homo sapiens, UniProt P25929); test: Displacement of [3H]UR-MK299 from Y1 receptor in human SK-N-MC cells; format: cell-based
T2 sequence (P25929 whole entry): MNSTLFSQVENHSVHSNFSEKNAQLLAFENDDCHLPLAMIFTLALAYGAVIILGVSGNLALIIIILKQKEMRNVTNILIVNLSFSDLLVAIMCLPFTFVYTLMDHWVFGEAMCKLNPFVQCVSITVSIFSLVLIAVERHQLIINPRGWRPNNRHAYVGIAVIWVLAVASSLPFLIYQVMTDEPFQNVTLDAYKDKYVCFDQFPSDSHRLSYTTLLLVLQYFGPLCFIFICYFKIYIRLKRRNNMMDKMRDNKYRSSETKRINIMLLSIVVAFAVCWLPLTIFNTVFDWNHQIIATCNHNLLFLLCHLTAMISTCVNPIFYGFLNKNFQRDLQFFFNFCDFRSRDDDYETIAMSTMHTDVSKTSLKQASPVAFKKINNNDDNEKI

[6] = species on record: Homo sapiens; test: Selectivity ratio of Ki for displacement of [3H]UR-MK299 from Y1 receptor in human SK-N-MC cells to Ki for displacement of [3H]UR-KK200 from human Y4 receptor expressed in CHO cells co-expressing Gqi5-mtAEQ; format: cell-based
[7] = biological target: T3, Neuropeptide Y receptor type 2 (Homo sapiens, UniProt P49146); test: Displacement of [3H]propionyl-pNPY from human Y2 receptor expressed in CHO cells measured after 2 hrs by microbeta liquid scintillation counting analysis; format: cell-based
T3 sequence (P49146 whole entry): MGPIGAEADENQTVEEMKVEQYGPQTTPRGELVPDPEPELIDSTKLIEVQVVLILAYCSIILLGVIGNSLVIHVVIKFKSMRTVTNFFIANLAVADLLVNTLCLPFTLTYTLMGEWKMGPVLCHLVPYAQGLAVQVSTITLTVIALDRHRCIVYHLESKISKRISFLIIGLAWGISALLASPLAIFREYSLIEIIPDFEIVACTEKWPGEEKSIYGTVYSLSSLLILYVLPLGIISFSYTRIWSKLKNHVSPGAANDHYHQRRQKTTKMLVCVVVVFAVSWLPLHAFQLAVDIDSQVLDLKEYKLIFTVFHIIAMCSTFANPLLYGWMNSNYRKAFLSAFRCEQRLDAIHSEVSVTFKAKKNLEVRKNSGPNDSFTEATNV

[8] = biological target: T4, Neuropeptide Y receptor type 5 (Homo sapiens, UniProt Q15761); test: Displacement of [3H]propionyl-pNPY from human Y5 receptor expressed in human HEC1B cells; format: cell-based
T4 sequence (Q15761 whole entry): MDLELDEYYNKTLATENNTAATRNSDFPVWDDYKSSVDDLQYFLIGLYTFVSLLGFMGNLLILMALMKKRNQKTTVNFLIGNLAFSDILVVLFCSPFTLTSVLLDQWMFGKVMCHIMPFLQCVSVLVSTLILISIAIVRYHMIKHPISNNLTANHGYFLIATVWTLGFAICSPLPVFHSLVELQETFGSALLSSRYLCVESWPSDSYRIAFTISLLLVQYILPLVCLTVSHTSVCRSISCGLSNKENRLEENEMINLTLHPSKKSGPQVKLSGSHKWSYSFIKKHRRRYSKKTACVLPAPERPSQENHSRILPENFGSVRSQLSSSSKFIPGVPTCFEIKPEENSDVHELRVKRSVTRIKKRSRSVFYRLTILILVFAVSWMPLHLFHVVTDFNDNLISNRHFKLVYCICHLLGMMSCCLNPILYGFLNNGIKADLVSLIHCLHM

[9] = species on record: Homo sapiens; test: Selectivity ratio of Ki for displacement of [3H]propionyl-pNPY from human Y5 receptor expressed in human HEC1B cells to Ki for displacement of [3H]UR-KK200 from human Y4 receptor expressed in CHO cells co-expressing Gqi5-mtAEQ; format: cell-based
[10] = species on record: Homo sapiens; test: Selectivity ratio of Ki for displacement of [3H]propionyl-pNPY from human Y2 receptor expressed in CHO cells to Ki for displacement of [3H]UR-KK200 from human Y4 receptor expressed in CHO cells co-expressing Gqi5-mtAEQ; format: cell-based

T1 sequence (P50391 whole entry): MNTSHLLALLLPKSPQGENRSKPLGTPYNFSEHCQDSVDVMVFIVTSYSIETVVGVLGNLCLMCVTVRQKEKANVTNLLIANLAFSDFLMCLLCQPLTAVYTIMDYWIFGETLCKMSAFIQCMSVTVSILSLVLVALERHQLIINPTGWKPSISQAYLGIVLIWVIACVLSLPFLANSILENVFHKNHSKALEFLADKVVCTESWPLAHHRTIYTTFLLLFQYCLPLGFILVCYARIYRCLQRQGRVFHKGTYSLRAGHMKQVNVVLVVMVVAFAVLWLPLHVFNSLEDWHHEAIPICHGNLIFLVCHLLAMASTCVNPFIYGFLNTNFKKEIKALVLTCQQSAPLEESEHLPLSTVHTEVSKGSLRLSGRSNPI

CC(C)C[C@H](NC(=O)[C@@H](N)CCCNC(=N)N)C(=O)N[C@H](CCCNC(=N)N)C(=O)N[C@@H](Cc1ccc(O)cc1)C(N)=O
EC50 ([1]; read-out: EC50): > 30 µM
EC50 ([1]; read-out: pEC50 (converted)): > 31.6 µM
EC50 ([2]; read-out: EC50): > 30 µM
EC50 ([2]; read-out: pEC50 (converted)): > 31.6 µM
Ki ([3]; read-out: Ki): 1.3 µM

CC(=O)N[C@@H](CCCNC(=N)N)C(=O)N[C@@H](Cc1ccc(O)cc1)C(=O)N[C@@H](CCCNC(N)=O)C(=O)N[C@@H](CC(C)C)C(=O)N[C@@H](CCCNC(=N)N)C(=O)N[C@@H](Cc1ccc(O)cc1)C(N)=O
EC50 ([1]; read-out: EC50): > 30 µM
EC50 ([1]; read-out: pEC50 (converted)): > 31.6 µM
EC50 ([4]; read-out: EC50): > 30 µM
EC50 ([4]; read-out: pEC50 (converted)): > 31.6 µM
EC50 ([2]; read-out: EC50): > 30 µM
EC50 ([2]; read-out: pEC50 (converted)): > 31.6 µM
Ki ([3]; read-out: Ki): 0.12 µM

CC(C)C[C@H](NC(=O)[C@H](N)CCCNC(=N)N)C(=O)N[C@@H](CCCNC(=N)N)C(=O)N[C@@H](Cc1ccc(O)cc1)C(N)=O
EC50 ([1]; read-out: EC50): 4.8 µM
EC50 ([1]; read-out: pEC50 (converted)): 4.68 µM
EC50 ([2]; read-out: EC50): 2.4 µM
Ki ([3]; read-out: Ki): 0.0074 µM

CC(C)C[C@H](NC(=O)[C@H](CCCNC(=N)N)NC(=O)[C@H](Cc1ccc(O)cc1)NC(=O)[C@@H](N)CCCNC(=N)N)C(=O)N[C@@H](CCCNC(N)=O)C(=O)N[C@@H](Cc1ccc(O)cc1)C(N)=O
Ki ([5]; read-out: Ki): > 3 µM
Ki ([5]; read-out: pKi (converted)): > 3.16 µM
EC50 ([1]; read-out: EC50): 0.93 µM
EC50 ([2]; read-out: EC50): 1.07 µM
Ki ([3]; read-out: Ki): 0.063 µM
Ki ([3]; read-out: pKi (converted)): 0.0562 µM
Ratio Ki [6]: > 48

Ac-RYRPRY-NH2
EC50 ([1]; read-out: EC50): > 30 µM
EC50 ([1]; read-out: pEC50 (converted)): > 31.6 µM
EC50 ([4]; read-out: EC50): > 30 µM
EC50 ([4]; read-out: pEC50 (converted)): > 31.6 µM
EC50 ([2]; read-out: EC50): > 30 µM
EC50 ([2]; read-out: pEC50 (converted)): > 31.6 µM
Ki ([3]; read-out: Ki): 1.8 µM

H-RYRGRY-NH2
EC50 ([1]; read-out: EC50): > 30 µM
EC50 ([1]; read-out: pEC50 (converted)): > 31.6 µM
EC50 ([4]; read-out: EC50): > 30 µM
EC50 ([4]; read-out: pEC50 (converted)): > 31.6 µM
EC50 ([2]; read-out: EC50): > 30 µM
EC50 ([2]; read-out: pEC50 (converted)): > 31.6 µM
Ki ([3]; read-out: Ki): 0.19 µM

CC(C)C[C@H](NC(=O)[C@@H](N)CCCNC(=N)N)C(=O)N[C@@H](CCCNC(=N)N)C(=O)N[C@H](Cc1ccc(O)cc1)C(N)=O
EC50 ([1]; read-out: EC50): > 30 µM
EC50 ([1]; read-out: pEC50 (converted)): > 31.6 µM
EC50 ([2]; read-out: EC50): > 30 µM
EC50 ([2]; read-out: pEC50 (converted)): > 31.6 µM
Ki ([3]; read-out: Ki): 1.5 µM

CC[C@H](C)[C@H](N)C(=O)N[C@H]1CCC(=O)NCC(C(=O)N[C@@H](Cc2ccc(O)cc2)C(=O)N[C@@H](CCCNC(=N)N)C(=O)N[C@@H](CC(C)C)C(=O)N[C@@H](CCCNC(=N)N)C(=O)N[C@@H](Cc2ccc(O)cc2)C(N)=O)NC(=O)[C@@H]2CCCN2C(=O)[C@@H](NC(=O)[C@@H](N)[C@@H](C)CC)CCC(=O)NCC(C(=O)N[C@@H](Cc2ccc(O)cc2)C(=O)N[C@@H](CCCNC(=N)N)C(=O)N[C@@H](CC(C)C)C(=O)N[C@@H](CCCNC(=N)N)C(=O)N[C@@H](Cc2ccc(O)cc2)C(N)=O)NC(=O)[C@@H]2CCCN2C1=O (stereo not given in full) (I: H-IEP[ξDap]YRLRY-NH2 / II: H-IEP[ξDap]YRLRY-NH2; amide I:2-II:4, I:4-II:2)
Ki ([3]; read-out: Ki): 0.00036 µM

CN[C@@H](CCCNC(=N)N)C(=O)N[C@@H](CC(C)C)C(=O)N[C@@H](CCCNC(=N)N)C(=O)N[C@@H](Cc1ccc(O)cc1)C(N)=O
Ki ([5]; read-out: Ki): > 3 µM
Ki ([5]; read-out: pKi (converted)): > 3.16 µM
EC50 ([1]; read-out: EC50): 1.2 µM
Ki ([7]; cho, read-out: Ki): > 1 µM
Ki ([7]; read-out: pKi (converted)): > 1 µM
Ki ([8]; read-out: Ki): > 10 µM
Ki ([8]; read-out: pKi (converted)): > 10 µM
EC50 ([2]; read-out: EC50): 2.5 µM
Ratio Ki [9]: > 2600
Ki ([3]; read-out: Ki): 0.0039 µM
Ratio Ki [6]: > 770
Ratio Ki [10]: > 260
